{"source": "patent US20040214762A1", "about": "“Use of inhibitors of proline endopeptidase to modulate inositol (1,4,5) triphosphate concentration dependent on intracellular signal cascades” (priority 2001, published 2004)", "key": {"[1]": {"target": "T1, purified recombinant human prolyl endopeptidase (Homo sapiens, UniProt P48147)", "T1 sequence (P48147 1-710)": "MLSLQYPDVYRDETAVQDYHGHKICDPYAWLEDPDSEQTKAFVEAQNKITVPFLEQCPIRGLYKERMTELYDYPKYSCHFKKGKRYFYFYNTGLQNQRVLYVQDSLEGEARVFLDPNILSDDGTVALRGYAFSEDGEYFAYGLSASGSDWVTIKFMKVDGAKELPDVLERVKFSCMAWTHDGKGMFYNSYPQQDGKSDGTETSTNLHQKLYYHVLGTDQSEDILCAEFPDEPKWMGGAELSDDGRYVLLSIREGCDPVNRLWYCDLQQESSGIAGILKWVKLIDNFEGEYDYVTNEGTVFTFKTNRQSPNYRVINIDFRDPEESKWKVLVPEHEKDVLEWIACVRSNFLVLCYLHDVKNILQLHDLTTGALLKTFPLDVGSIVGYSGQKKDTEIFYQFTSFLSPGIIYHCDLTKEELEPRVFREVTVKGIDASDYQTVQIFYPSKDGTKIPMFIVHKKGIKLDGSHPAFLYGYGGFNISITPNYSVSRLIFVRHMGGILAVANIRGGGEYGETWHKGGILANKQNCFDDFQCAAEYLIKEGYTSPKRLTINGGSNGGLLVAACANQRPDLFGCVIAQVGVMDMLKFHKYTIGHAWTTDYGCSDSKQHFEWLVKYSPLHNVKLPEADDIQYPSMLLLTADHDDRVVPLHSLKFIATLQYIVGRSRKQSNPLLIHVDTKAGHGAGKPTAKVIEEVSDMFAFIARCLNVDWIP", "experiment": "Determination of IC50 with Z-Gly-Pro-AMC", "assay_type": "biochemical", "conditions": "Z-Gly-Pro-AMC 10 μM, 37° C., 60 min", "experimental": "100 μl inhibitor stock solution were mixed with 100 μl buffer (EPES pH7.6) and 50 μl substrate (Z-Gly-Pro-AMC, final concentration 10 μM). Reaction was started by addition of 20 μl purified recombinant human prolyl endopeptidase. Fluorescence measurement was performed at 37° C. and λexiatation=380 nm, λemission=465 nm for 60 min using a plate reader (HTS7000plus, Applied Biosystems, Weiterstadt, Germany). The final inhibitor concentrations ranged between 1 pM and 10 μM. For calculation of the IC50 value Prism 3″ (Graphpad) was used. The IC50-value of Benzyl-N-[1-(cyclopentylcarbonyl)-2-methylbutyl]carbamate was calculated as of IC50=8,91*10^−7 M"}, "[2]": {"target": "T2, intracellular PEP activity (Homo sapiens, UniProt P48147)", "T2 construct": "endogenous in cells; host or cells: U343 human astro glioma cells (wild type)", "T2 sequence (P48147 1-710)": "T1 sequence (P48147 1-710)", "experiment": "Inhibition of intracellular PEP activity in U343 cells (Z-Gly-Pro-NHMec)", "assay_type": "cell-based", "experimental": "(§1) Two different approaches were chosen to influence the intracellular activity of PEP in U343 cells. Fmoc-Ala-Pyrr-CN is a potent and specific inhibitor for PEP (9), with an observed Ki value of 70 pM against recombinant human PEP (data not shown). It has been shown that this inhibitor is able to penetrate the cell membrane and inhibit PEP intracellularly (10). […] This inhibition is observed for up to 12 hours without adding fresh inhibitor. In addition, a totally different approach of reducing PEP activity was employed by generating antisense cell lines displaying reduced expression of the target enzyme.\nFor the determination of PEP activity, U343 wild-type and PEP antisense cells (1×10^7) were harvested by washing twice in phosphate buffered saline (GIBCO BRL) and resuspended in 200 μl assay buffer (50 mM HEPES pH 7.5; 200 mM NaCl; 1 mM EDTA; 1 mM DTT). […] The protein concentration in the supernatant was determined according to the method of Bradford (5). PEP activity was measured in assay buffer using the fluorogenic substrate Z-Gly-Pro-NHMec (10 μM) (Bachem) on a Kontron spectrofluorometer SFM 25 (excitation 380, emission 460) equipped with a four-cell changer and controlled by an IBM-compatible personal computer. The obtained data were analyzed with the software Flucol (6)."}, "[3]": {"test_system": "IP3 concentration in U343 cells", "experiment": "IP3 concentration in U343 cells after stimulation by substance P", "assay_type": "cell-based, human", "conditions": "for difference in IP3 concentration by inhibition: 5 μM inhibitor 12 hours", "experimental": "To characterize the intracellular function of PEP, the IP3 concentration in the antisense cell lines Was measured. Cells were grown in 25 cm^2 culture flasks to nearly 100% confluence. IP3 concentration was determined by an isotope dilution method (Amersham Phamacia Biotech) using 0.5×10^6 cells per measurement. […] All measurements were done in quadruplicate. The calculation of IP3 concentration and the statistical analysis (t-test) were performed using Prism 3.0 (Graph Pad Software).\nWild-type and PEP antisense U343 cell lines were cultured in duplicate in 21 cm^2 culture dishes (Greiner) until confluence. Prior to stimulation the cells were washed twice in PBS and preincubated for 10 h in Optimem1 medium containing 1.6 μg/ml leupeptin (Sigma), 0.86 μg/ml chymostatin (Sigma), and 40 μg/ml bacitracin (Sigma) at 37° C. and 5% CO2. Substance P (Bachem) was added to obtain a final concentration of 1×10^−6 M and the incubation was stopped at the indicated time by rapidly aspirating the medium and adding of 0.4 ml ice cold trichloric acid. Preparation of samples and measurement of IP3 concentration were performed as described above."}, "PEP [4]": {"target": "T3, PEP (Homo sapiens, UniProt P48147)", "T3 sequence (P48147 1-710)": "T1 sequence (P48147 1-710)", "experiment": "Ki against recombinant human PEP", "assay_type": "biochemical", "conditions": "data not shown", "experimental": "as §1"}, "[5]": {"test_system": "IP3 concentration in U343 cells", "experiment": "IP3 concentration in U343 cells treated with PEP inhibitor (isotope dilution method)", "assay_type": "cell-based, human", "experimental": "To characterize the intracellular function of PEP, the IP3 concentration in the antisense cell lines Was measured. Cells were grown in 25 cm^2 culture flasks to nearly 100% confluence. IP3 concentration was determined by an isotope dilution method (Amersham Phamacia Biotech) using 0.5×10^6 cells per measurement. To inhibit intracellular PEP, the cells were washed twice with PBS and incubated for 4 hours in Optimem 1 medium (GIBCO BRL) supplemented with 5 μM PEP-inhibitor Fmoc-alanyl-pyrroline-2-nitrile (Fmoc-Ala-Pyrr-CN). All measurements were done in quadruplicate. The calculation of IP3 concentration and the statistical analysis (t-test) were performed using Prism 3.0 (Graph Pad Software).\nTo use an alternative approach suppressing PEP activity in U343 cells, the cells were incubated for 3 hours in presence of the specific inhibitor Fmoc-Ala-Pyrr-CN (5 μM). The influence of DMSO, necessary for dissolving the inhibitor, was excluded by adding the same amount (0.05%) of DMSO to the media of control cells. […] However, the observed changes in IP3 concentration were only 0.16 pmol/10^6 cells. This is much lower than the observed change on IP3 concentration in cell line as-11 still having 30% remaining PEP activity, and calls into question the correlation between PEP activity and IP3 concentration. […] Moreover, the lower concentration of IP3 measured after 24 hours reflects the slight recovery of PEP activity at that time point. The total amount of IP3 after 12 hours (1.69±0.1) pmol/10^6 cells; n=4) is higher than the concentration measured in cell line as-11 (0.9±0.07 pmol/10^6 cells; n=4), displaying 30% remaining enzyme activity."}, "PEP [6]": {"target": "T3, PEP", "experiment": "Degradation of substance P in serum free medium of U343 cells (MALDI-TOF MS)", "assay_type": "in vitro ADME", "design": "endogenous in cells; host or cells: U343 human astro glioma cells (wild type)", "conditions": "serum free Optimem1 medium of U343 cells, 10 min; data not shown", "experimental": "Using RT-PCR, the occurrence of substance P specific neurokinin receptors (NK-R) in U343 cells was investigated. PCR products could be obtained for two receptors displaying an appropriate size (FIG. 5). […] Being aware that substance P is an excellent in vitro substrate for PEP, we investigated potential degradation of substance P during the incubation time in the serum free Optimem1 medium of U343 cells by MALDI-TOF MS analysis. […] This is in agreement with the fact that no PEP activity is measurable in the medium (FIG. 6)."}}}
{"molecule": "CCC(C)C(NC(=O)OCc1ccccc1)C(=O)C1CCCC1", "note": "(stereo not shown) [Benzyl-N-[1-(cyclopentylcarbonyl)-2-methylbutyl]carbamate]", "values": [{"measurement": "IC50", "setting": "[1]", "value": 891, "unit": "nM"}]}
{"molecule": "Fmoc-alanyl-pyrroline-2-nitrile [Fmoc-Ala-Pyrr-CN]", "values": [{"measurement": "duration of inhibition without adding fresh inhibitor", "setting": "[2]; 5 μM", "value": "up to 12 hours"}, {"measurement": "inhibition of intracellular PEP activity", "setting": "[2]; 5 μM in medium", "value": "total inhibition"}, {"measurement": "difference in IP3 concentration by inhibition", "setting": "[3]; U343 cells stimulated with 1 μM substance P 5 sec", "value": 7.9, "unit": "pmol/10^6 cells"}, {"measurement": "kinetic profile of IP3 stimulation by substance P, inhibitor treated vs control cells", "setting": "[3]; U343 wild-type cells, 5 μM for 12 hours, 1 μM substance P", "value": "slight increased, but similar pattern"}, {"measurement": "proportional difference in IP3 concentration by inhibition", "setting": "[3]; non stimulated U343 cells", "value": 5.5, "unit": "fold"}, {"measurement": "difference in IP3 concentration by inhibition", "setting": "[3]; non stimulated U343 cells", "value": 1.7, "unit": "pmol/10^6 cells"}, {"measurement": "proportional difference in IP3 concentration by inhibition", "setting": "[3]; substance P stimulated U343 cells", "value": 1.7, "unit": "fold"}, {"measurement": "Ki", "setting": "PEP [4]", "value": 0.07, "unit": "nM"}, {"measurement": "change in IP3 concentration", "setting": "[5]; 5 μM, 3 hours incubation", "value": 0.16, "unit": "pmol/10^6 cells"}, {"measurement": "total amount of IP3", "setting": "[5]; 5 μM, after 12 hours total inhibition, n=4", "value": "1.69±0.1", "unit": "pmol/10^6 cells"}, {"measurement": "time to maximum IP3 concentration", "setting": "[5]; single treatment 5 μM", "value": 12, "unit": "h"}]}
{"molecule": "substance P: neuropeptide (Bachem), peptide hormone used to stimulate U343 cells", "values": [{"measurement": "time of maximum IP3 concentration after stimulation", "setting": "[3]; U343 wild-type untreated or inhibitor treated and as-2 cells, 1 μM substance P", "value": 5, "unit": "s"}, {"measurement": "rise of IP3 concentration by substance P stimulation", "setting": "[3]; wild-type U343 cells, 1 μM substance P, 5 sec", "value": "about 14 fold"}, {"measurement": "IP3 concentration after substance P stimulation", "setting": "[3]; wild-type U343 cells, 1 μM substance P, 5 sec, n=4", "value": "5.4±0.49", "unit": "pmol/10^6 cells"}, {"measurement": "PEP specific degradation", "setting": "PEP [6]", "value": "no PEP specific degradation was observed"}]}
